Test results: patent US8404683B2, “Inhibitors of the interaction between MDM2 and P53” (Janssen Pharmaceutical N.V., priority 2004, dated 2013)

Tested on: U87MG cells
Assay: Proliferation assay (MTT-based) on U87MG tumour cells
Conditions: Homo sapiens, U-87 MG, 96 h, 4 days of incubation, negative log value of the IC50-value, read-out: cell proliferation pIC50 (converted)
Experimental: U87MG cells are human glioblastoma cells with wild type p53. In this cell line MDM2 tightly controls p53 expression.
Cellular activity of the compounds of formula (I) was determined on U87MG tumour cells using a colorimetric assay for cell toxicity or survival (see example C.2).
All compounds tested were dissolved in DMSO and further dilutions were made in culture medium. Final DMSO concentrations never exceeded 0.1% (v/v) in cell proliferation assays. Controls contained U87MG cells and DMSO without compound and blanks contained DMSO but no cells.
U87MG cells were seeded in 96-well cell culture plates at 3000 cells/well/100 μl. 24 hours later, medium was changed and compound and/or solvent were added to a final volume of 200 μl. Following 4 days of incubation, medium was replaced by 200 μl fresh medium and cell growth was assessed using a MTT-based assay. Therefore, 25 μl of the MTT solution (0.5% MTT research grade from Serva in phosphate-buffered saline) was added to each well and the cells were further incubated for 2 hours at 37° C. The medium was then carefully aspirated and the blue MTT-formazan product was dissolved by adding to each well 25 μl 0.1 M glycin and 100 μl DMSO. The plates were shaken for another 10 min on a micro plate shaker before reading absorbance at 540 nm by a Biorad micro plate reader.
Within an experiment, the results for each experimental condition are the mean of 3 replicate wells. For initial screening purposes, compounds were tested at a single fixed concentration of 10^−5 M. For active compounds, the experiments were repeated to establish full concentration-response curves. For each experiment, controls (containing no drug) and a blank incubation (containing no cells or drugs) were run in parallel. The blank value was subtracted from all control and sample values. For each sample, the mean value for cell growth (in absorbance units) was expressed as a percentage of the mean value for cell growth of the control. When appropriate, IC50-values (concentration of the drug, needed to reduce cell growth to 50% of the control) were computed using probit analysis for graded data (Finney, D. J., Probit Analyses, 2nd Ed. Chapter 10, Graded Responses, Cambridge University Press, Cambridge 1962). Herein the effects of test compounds are expressed as pIC50 (the negative log value of the IC50-value) (see table F-2).

SMILES	IC50
CC(C)(CO)C1CCN(C(=O)C(Cc2c[nH]c3ccccc23)Nc2ccc(Nc3ccncc3)cc2)CC1 (stereo not shown) [Compound 220]	6310 nM
COc1ccc2c(CCNc3ccc(Nc4ccncc4)cc3)c[nH]c2c1 [Compound 54]	126 nM
CC(C)(C)OC(=O)N(CCc1cn(C(=O)OC(C)(C)C)c2ccccc12)c1ccc(Nc2ccncc2)cc1 [Compound 226]	3160 nM
Clc1ccc2c(CCNc3ccc(Nc4ccncc4)cc3)c[nH]c2c1 [Compound 50]	100 nM
c1ccc(CNCc2cc(Nc3ccc(NCCc4c[nH]c5ccccc45)cc3)ccn2)cc1 [Compound 168]	2000 nM
N#CC=Cc1ccc2c(CCNc3ccc(Nc4ccncc4)cc3)c[nH]c2c1 [Compound 194]	6310 nM
COc1ccc2nc(C)cc(Nc3ccc(NCCc4c[nH]c5ccccc45)cc3)c2c1 [Compound 20]	100 nM
c1ccc(CCCCNCc2cc(Nc3ccc(NCCc4c[nH]c5ccccc45)cc3)ccn2)cc1 [Compound 170]	3160 nM
O=C(C(Cc1c[nH]c2ccccc12)Nc1ccc(Nc2ccncc2)cc1)N1CCC(CO)CC1 (stereo not shown) [Compound 224]	3980 nM
c1ccc2c(CCCCNc3ccc(Nc4ccncc4)cc3)c[nH]c2c1 [Compound 74]	1580 nM
c1ccc2c(CCCNCc3ccc(Nc4ccncc4)cc3)c[nH]c2c1 [Compound 72]	2000 nM
CNC(=O)c1cc(Nc2ccc(NCCc3c[nH]c4ccccc34)cc2)ccn1 [Compound 63]	1580 nM
COc1ccc2[nH]cc(CCNc3ccc(Nc4ccnc5ccccc45)cc3)c2c1 [Compound 32]	158 nM
Clc1ccc2[nH]cc(CCNc3ccc(Nc4ccncc4)cc3)c2c1 [Compound 182]	1580 nM
N#CCNCc1cc(Nc2ccc(NCCc3c[nH]c4ccccc34)cc2)ccn1 [Compound 157]	1580 nM
O=C(O)CCNCc1cc(Nc2ccc(NCCc3c[nH]c4ccccc34)cc2)ccn1 [Compound 97]	> 10000 nM
Cn1cc(CCN(c2ccncc2)c2ccc(Nc3ccncc3)cc2)c2ccccc21 [Compound 10]	1260 nM
OC(c1cc(Nc2ccc(NCCc3c[nH]c4ccccc34)cc2)ccn1)C1CC1 (stereo not shown) [Compound 136]	2000 nM
CCOc1cc(Nc2ccnc3c2CCCC3O)ccc1NCCc1c[nH]c2cc(OC)ccc12 (stereo not shown) [Compound 197]	251 nM
c1ccc2c(Nc3ccc(NCCc4c[nH]c5ccccc45)cc3)ccnc2c1 [Compound 1]	< 10 nM
Cc1cc(Nc2ccncc2)ccc1NCCc1c[nH]c2ccccc12 [Compound 47]	158 nM
CN(c1ccncc1)c1ccc(NCCc2c[nH]c3ccccc23)cc1 [Compound 83]	3160 nM
CC(NCCCCO)c1cc(Nc2ccc(NCCc3c[nH]c4ccccc34)cc2)ccn1 (stereo not shown) [Compound 100]	3980 nM
c1cncc(CNc2ccc(NCCc3c[nH]c4ccccc34)cc2)c1 [Compound 121]	> 10000 nM
OCCNCc1cc(Nc2ccc(NCCc3c[nH]c4ccccc34)cc2)ccn1 [Compound 152]	10000 nM

SMILES	IC50
OCCCCNCc1cc(Nc2ccc(NCCc3c[nH]c4ccccc34)cc2)ccn1 [Compound 165]	5010 nM
CN(CCO)C(=O)C(Cc1c[nH]c2ccccc12)Nc1ccc(Nc2ccncc2)cc1 (stereo not shown) [Compound 213]	> 10000 nM
COc1ccc2[nH]cc(CCNc3ccc(Nc4ccncc4)cc3)c2c1 [Compound 62]	2510 nM
N#Cc1ccc2nccc(Nc3ccc(NCCc4c[nH]c5ccccc45)cc3)c2c1 [Compound 29]	251 nM
O=C(NCCCCCO)C(Cc1c[nH]c2ccccc12)Nc1ccc(Nc2ccncc2)cc1 (stereo not shown) [Compound 118]	> 10000 nM
O=C(c1ccccc1)c1cc(Nc2ccc(NCCc3c[nH]c4ccccc34)cc2)ccn1 [Compound 56]	2510 nM
c1ccc(-c2cc(Nc3ccc(NCCc4c[nH]c5ccccc45)cc3)ccn2)cc1 [Compound 39]	631 nM
O=C(C(Cc1c[nH]c2ccccc12)Nc1ccc(Nc2ccncc2)cc1)N1CCCC(CO)C1 (stereo not shown) [Compound 218]	> 10000 nM
COc1cc(NCCc2c[nH]c3ccccc23)ccc1Nc1ccncc1 [Compound 85]	158 nM
COc1cccc2[nH]cc(CCNc3ccc(Nc4ccncc4)cc3)c12 [Compound 191]	3160 nM
CNCc1cc(Nc2ccc(NCCc3c[nH]c4ccccc34)cc2)ccn1 [Compound 154]	3160 nM
CC(NCCCc1ccccc1)c1cc(Nc2ccc(NCCc3c[nH]c4ccccc34)cc2)ccn1 (stereo not shown) [Compound 148]	3160 nM
CC(C)C(O)c1cc(Nc2ccc(NCCc3c[nH]c4ccccc34)cc2)ccn1 (stereo not shown) [Compound 137]	3160 nM
CCc1cc(Nc2ccc(NCCc3c[nH]c4ccccc34)cc2)c2ccccc2n1 [Compound 33]	63.1 nM
COCCOCc1cc(Nc2ccc(NCCc3c[nH]c4ccccc34)cc2)ccn1 [Compound 169]	398 nM
CN1CCN(Cc2cc(Nc3ccc(NCCc4c[nH]c5ccccc45)cc3)ccn2)CC1 [Compound 160]	398 nM
c1ccc2c(CCNc3ccc(Nc4ccnc(CNCCCN5CCOCC5)c4)cc3)c[nH]c2c1 [Compound 166]	> 10000 nM
O=C(OCc1ccccc1)C(Cc1c[nH]c2ccccc12)Nc1ccc(Nc2ccncc2)cc1 (stereo not shown) [Compound 67]	1260 nM
c1ccc2c(CCNc3ccc(Nc4ccnc(CN5CCOCC5)c4)cc3)c[nH]c2c1 [Compound 159]	3160 nM
Cc1cccc2c(CCNc3ccc(Nc4ccncc4)cc3)c[nH]c12 [Compound 187]	398 nM
O[C@@H]1CCc2c(Nc3ccc(NCCc4c[nH]c5ccccc45)cc3)ccnc21 [Compound 195]	79.4 nM
c1cncc(Nc2ccc(NCc3c[nH]c4ccccc34)cc2)c1 [Compound 78]	10000 nM
O=C(c1cc(Nc2ccc(NCCc3c[nH]c4ccccc34)cc2)ccn1)C1CC1 [Compound 204]	7940 nM
CCCc1cc(Nc2ccc(NCCc3c[nH]c4ccccc34)cc2)c2ccccc2n1 [Compound 30]	316 nM
COc1cccc2c(CCNc3ccc(Nc4ccncc4)cc3)c[nH]c12 [Compound 188]	794 nM

SMILES	IC50
OCc1cc(Nc2ccc(NCCc3c[nH]c4ccccc34)cc2)c2ccccc2n1 [Compound 14]	39.8 nM
OCc1cc(Nc2ccc(NCCc3c[nH]c4ccccc34)cc2)cc(CO)n1 [Compound 135]	1000 nM
Cc1cc(Nc2ccc(NCCc3c[nH]c4ccccc34)cc2)ccn1 [Compound 46]	251 nM
NCc1cc(Nc2ccc(NCCc3c[nH]c4ccccc34)cc2)ccn1 [Compound 55]	501 nM
O=C(O)Cc1cc(Nc2ccc(NCCc3c[nH]c4ccccc34)cc2)ccn1 [Compound 70]	251 nM
OCCc1cc(Nc2ccc(NCCc3c[nH]c4ccccc34)cc2)ccn1 [Compound 51]	316 nM
COc1ccc2c(CCNc3ccc(Nc4ccnc5c4CCC5O)cc3)c[nH]c2c1 (stereo not shown) [Compound 196]	200 nM
c1ccc2c(CCCNc3ccc(Nc4ccncc4)cc3)c[nH]c2c1 [Compound 71]	794 nM
O=C(C(Cc1c[nH]c2ccccc12)Nc1ccc(Nc2ccncc2)cc1)N1CCCCC1CCCO (stereo not shown) [Compound 216]	2510 nM
Oc1cccc2c(Nc3ccc(NCCc4c[nH]c5ccccc45)cc3)ccnc12 [Compound 27]	79.4 nM
CC(NCCN1CCOCC1)c1cc(Nc2ccc(NCCc3c[nH]c4ccccc34)cc2)ccn1 (stereo not shown) [Compound 144]	3160 nM
O=C(OCc1ccccc1)N1CCN(Cc2cc(Nc3ccc(NCCc4c[nH]c5ccccc45)cc3)ccn2)CC1 [Compound 90]	2510 nM
c1ccc2c(CCNc3ccc(Nc4ccnc(CN5CCCC5)c4)cc3)c[nH]c2c1 [Compound 53]	631 nM
O=C(CCc1c[nH]c2ccccc12)Nc1cccc(Nc2ccncc2)c1 [Compound 82]	> 10000 nM
COCC1(O)CCN(C(=O)C(Cc2c[nH]c3ccccc23)Nc2ccc(Nc3ccncc3)cc2)CC1 (stereo not shown) [Compound 222]	3980 nM
c1ccc2c(CCNCCc3ccc(Nc4ccncc4)cc3)c[nH]c2c1 [Compound 75]	3160 nM
O=C(C(Cc1c[nH]c2ccccc12)Nc1ccc(Nc2ccncc2)cc1)N1CCN(CCO)CC1 (stereo not shown) [Compound 114]	> 10000 nM
CC(NCCN)c1cc(Nc2ccc(NCCc3c[nH]c4ccccc34)cc2)ccn1 (stereo not shown) [Compound 89]	3980 nM
CCN(CCCCO)C(=O)C(Cc1c[nH]c2ccccc12)Nc1ccc(Nc2ccncc2)cc1 (stereo not shown) [Compound 212]	1580 nM
c1ccc(COc2cc(Nc3ccnc4ccccc34)ccc2NCCc2c[nH]c3ccccc23)cc1 [Compound 17]	631 nM
CN(C)CCN(Cc1ccccc1)C(=O)C(Cc1c[nH]c2ccccc12)Nc1ccc(Nc2ccncc2)cc1 (stereo not shown) [Compound 211]	63.1 nM
O=C(O)c1cc(Nc2ccc(NCCc3c[nH]c4ccccc34)cc2)ccn1 [Compound 58]	> 10000 nM
c1ccc2c(CCNc3ccc(Nc4ccnc(CNCCN5CCOCC5)c4)cc3)c[nH]c2c1 [Compound 153]	2510 nM
